Assays:
zebrafish embryos = settings: literature reports; cited from earlier work
[1] = test system: zebrafish mutant strains and wild-type; assay: Carcinogenesis assay in mutant strains (carcinogen induced tumorigenesis, Table II); settings: 21 day-old fry
Wild-type fish = settings: zebrafish, in vivo
[2] = SQW 61, 5.0 ppm DMBA 24 hours, three months post-treatment
[3] = SQW 213, 5.0 ppm DMBA 24 hours, three months post-treatment
[4] = SQW 226, 5.0 ppm DMBA 24 hours, three months post-treatment
[5] = SQW 280, 5.0 ppm DMBA 24 hours, three months post-treatment
[6] = WT, 5.0 ppm DMBA 24 hours, 6 months post-treatment

CC[C@@]1(O)C(=O)OCc2c1cc1n(c2=O)Cc2cc3ccccc3nc2-1 [Camptothecin]
effect on zebrafish embryos (checkpoint, apoptosis) (zebrafish embryos): produces DNA strand breaks, resulting in subsequent apoptosis

Cc1c2ccccc2c(C)c2c1ccc1ccccc12 [DMBA, 7,12 dimethylbenzanthracene]
# tumors [1, 2]: 24
% tumors [1, 2]: 18%
# tumors [1, 3]: 2
% tumors [1, 3]: 7%
# tumors [1, 4]: 4
% tumors [1, 4]: 20%
# tumors [1, 5]: 6
% tumors [1, 5]: 12%
# tumors [1, 6]: 2
% tumors [1, 6]: 5%
fish that developed tumors (Wild-type fish; wild-type): 10.4%
fish that developed tumors / fish treated (Wild-type fish; wild-type): 9/86
tumor seen in tissue sections (histology) (Wild-type fish): medulloblastoma
tumor types produced (Wild-type fish): more brain and liver tumors

C[C@@]1(CO)[C@H](O)CC[C@@]2(C)[C@H]1CC[C@H]1C[C@@H]3C[C@@]12CC[C@]3(O)CO [aphidicolin]
effect on zebrafish embryos (checkpoint, apoptosis) (zebrafish embryos): cause apoptosis

NC(=O)NO [hydoxyurea]
effect on zebrafish embryos (checkpoint, apoptosis) (zebrafish embryos): cause apoptosis

COC(=O)Nc1nc2cc(C(=O)c3cccs3)ccc2[nH]1 [nocodozolc]
effect on zebrafish embryos (checkpoint, apoptosis) (zebrafish embryos): destabilized microtubules and the activation of a mitotic checkpoint

Reference: US6943025B2, “Method for identifying genes involved in cell proliferation” (Children's Medical Center Corporation, priority 2001, dated 2005)
